Assay results published in patent US20090048348A1, “METHOD FOR TREATING AUTISM” (Forest Laboratories Holdings Ltd., priority 2004, published 2009).
Structures can show the parent of a compound that is named as a salt.

System: children and adolescents with autistic spectrum disorders
Assay: Open-label trial of Memantine in children and adolescents with autistic spectrum disorders
Type: in vivo, human
Protocol: In support of the present invention, an experiment was conducted to evaluate the use of Memantine in children and adolescents with autistic spectrum disorders (hereinafter referred to as “ASD”). […] A range of 2.5-10 mg per day of Memantine was applied as an open-label trial in children with ASD. Clinical observations of global function in language and/or behavior pattern were assessed. Thirty patients, including 24 males and 6 females with an average age of 8.92 years and meeting DSM-IV criteria for ASD, were treated with Memantine for greater than 8 weeks. The patients were evaluated using a global clinical improvement scale rating for improvement in language and behaviors based on parental observation and clinical appearance. Improvements were rated as follows: moderate to significant, mild to moderate, or no improvement. The therapy ranged from between 8 to 40 weeks, with an average duration of therapy of 18 weeks and an average daily dosage of 8.1 mg. After the thirty patients were treated for more than 2 months with Memantine, parents reported improvements in 26 of the 30 patients in one or more categories: attention, motor planning, language function (both receptively and expressively), and self-stimulatory behaviors. Moderate to significant improvement occurred in 16 of the 26, with milder improvement in 10 of the 26.

[1] = open-label, 2.5-10 mg per day, treated more than 2 months, global clinical improvement scale

## CC12CC3CC(C)(C1)CC(N)(C3)C2 [Memantine, 1-amino-3,5-dimethyladamantane hydrochloride]
open-label trial in ASD, overall clinical observation
  frontal executive functions (attention, speech expression, perseveration): appears to clearly improve frontal executive functions
open-label, 2.5-10 mg per day, 30 patients treated more than 2 months
  side effects: No side effects were reported
open-label, 2.5-10 mg per day, average 8.1 mg daily, treated more than 2 months (8 to 40 weeks), global clinical improvement scale
  patients with parent-reported improvements in one or more categories (attention, motor planning, language function, self-stimulatory behaviors): 26 of the 30 patients
[1]
  patients with milder improvement: 10 of the 26
  patients with moderate to significant improvement: 16 of the 26
